“And” between values parts separate entries of the source, which are not always exact repeats. Equal values may be shown once. Inconclusive results and toxic doses are left out.
Test system: BDF1 mice, P388 leukemia ip, median survival T/C
Assay: NCI In Vivo Anticancer Drug Screen. Data for tumor model P388 Leukemia (intraperitoneal) in B6D2F1 (BDF1) mice
Conditions: endpoint: median survival time, higher = longer survival
Outline: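 Steps: implant the tumour, treat one group with compound and another with vehicle, record survival, then divide treated by control.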

[1] = dose: 50.0 mg/kg/injection, schedule: Q04DX003 (ip), vehicle: saline with Tween-80
[2] = dose: 100.0 mg/kg/injection, schedule: Q04DX003 (ip), vehicle: saline with Tween-80
[3] = dose: 200.0 mg/kg/injection, schedule: Q04DX003 (ip), vehicle: saline with Tween-80
[4] = dose: 400.0 mg/kg/injection, schedule: Q04DX003 (ip), vehicle: saline with Tween-80
[5] = dose: 50.0 mg/kg/injection, schedule: Q01DX009 (ip), vehicle: saline with Tween-80
[6] = dose: 100.0 mg/kg/injection, schedule: Q01DX009 (ip), vehicle: Klucel (hydroxypropylcellulose) (HPC)
[7] = dose: 200.0 mg/kg/injection, schedule: Q01DX009 (ip), vehicle: Klucel (hydroxypropylcellulose) (HPC)
[8] = dose: 400.0 mg/kg/injection, schedule: Q01DX009 (ip), vehicle: Klucel (hydroxypropylcellulose) (HPC)
[9] = dose: 200.0 mg/kg/injection, schedule: Q04DX003 (ip), vehicle: Klucel (hydroxypropylcellulose) (HPC)
[10] = dose: 400.0 mg/kg/injection, schedule: Q04DX003 (ip), vehicle: Klucel (hydroxypropylcellulose) (HPC)
[11] = dose: 100.0 mg/kg/injection, schedule: Q01DX001 (ip), vehicle: Klucel (hydroxypropylcellulose) (HPC)
[12] = dose: 200.0 mg/kg/injection, schedule: Q01DX001 (ip), vehicle: Klucel (hydroxypropylcellulose) (HPC)

Q: For `C[CH2][Pb]([CH2]C)([CH2]C)[O][As](=O)(O)c1ccc(N)cc1`, which T/C (dose: 1.5 mg/kg/injection, schedule: Q01DX009 (ip), vehicle: saline) is on record?
A: 107 % of control

Q: What about the T/C (dose: 2.0 mg/kg/injection, schedule: Q01DX009 (ip), vehicle: saline) of the same compound?
A: 111 % of control

Q: And the T/C (dose: 3.0 mg/kg/injection, schedule: Q01DX009 (ip), vehicle: saline)?
A: 103 % of control

Q: What about the T/C (dose: 4.5 mg/kg/injection, schedule: Q01DX009 (ip), vehicle: saline) of the same compound?
A: 95 % of control

Q: How did the T/C (dose: 1.5 mg/kg/injection, schedule: Q01DX010 (ip), vehicle: saline) turn out when `O=c1cccc2n1CC1CNC[C@H]2C1` was run?
A: 104 % of control

Q: What about the T/C (dose: 3.0 mg/kg/injection, schedule: Q01DX010 (ip), vehicle: saline) of the same compound?
A: 109 % of control

Q: What about the T/C (dose: 6.0 mg/kg/injection, schedule: Q01DX010 (ip), vehicle: saline) of the same compound?
A: 109 % of control

Q: Which T/C [1] does the source give for `O=C(O)c1ccc(C(=O)O)c2c(C(=O)O)ccc(C(=O)O)c12` here?
A: 95 % of control

Q: What about the T/C [2] of the same compound?
A: 95 % of control

Q: And the T/C [3]?
A: 90 % of control

Q: Which results are given for `CCCC[N+](CC)(CC)CCCNC1=CC(=O)C(NCCC[N+](CC)(CC)CCCC)=CC1=O`?
A: T/C (dose: 0.39 mg/kg/injection, schedule: Q04DX002 (ip), vehicle: saline): 105 % of control; T/C (dose: 0.78 mg/kg/injection, schedule: Q04DX002 (ip), vehicle: saline): 105 % of control

Q: `COC(=O)C12N=NN(c3ccccc3)C1(C(=O)OC)C1CCC2C1` (stereo unspecified) was tested. Which T/C [2] did it give?
A: 100 % of control

Q: What about the T/C [3] of the same compound?
A: 100 % of control

Q: And the T/C [4]?
A: 91 % of control

Q: Which T/C (dose: 25.0 mg/kg/injection, schedule: Q01DX009 (ip), vehicle: saline with Tween-80) does the source give for `CCCCCCCCCCCCCCC(F)C(=O)OCC1OC(CO)(OC2OC(CO)C(O)C(O)C2O)C(O)C1O` (stereo unspecified) here?
A: 116 % of control

Q: And the T/C [5]?
A: 108 % of control

Q: What about the T/C [1] of the same compound?
A: 108 % of control

Q: And the T/C [2]?
A: 91 % of control

Q: Which results are given for `CC(C)=CC(=O)n1nc2c(c1CC(C)C)C(=O)C(Nc1ccccc1)=CC2=O`?
A: T/C [2]: 93 % of control; T/C [3]: 90 % of control; T/C [4]: 100 % of control

Q: `CCOC(=O)Cn1c(C(F)(F)F)nc2nc(Cl)c(Cl)nc21` was tested. Which T/C [2] did it give?
A: 110 % of control

Q: What about the T/C [3] of the same compound?
A: 110 % of control

Q: And the T/C [4]?
A: 110 % of control

Q: `COc1ccc(C(=O)CCCCl)cc1` was tested. Which T/C [6] did it give?
A: 100 % of control

Q: What about the T/C [7] of the same compound?
A: 110 % of control

Q: What about the T/C [8] of the same compound?
A: 95 % of control

Q: `CN(C)c1ccc(C=O)c(Oc2ccccc2)c1` was tested. Which T/C (dose: 12.5 mg/kg/injection, schedule: Q04DX003 (ip), vehicle: Klucel (hydroxypropylcellulose) (HPC)) did it give?
A: 91 % of control

Q: And the T/C (dose: 25.0 mg/kg/injection, schedule: Q04DX003 (ip), vehicle: Klucel (hydroxypropylcellulose) (HPC))?
A: 108 % of control

Q: What about the T/C (dose: 50.0 mg/kg/injection, schedule: Q04DX003 (ip), vehicle: Klucel (hydroxypropylcellulose) (HPC)) of the same compound?
A: 91 % of control

Q: And the T/C [9]?
A: 100 % of control

Q: What about the T/C [10] of the same compound?
A: 100 % of control

Q: How did the T/C [11] turn out when `CC1CCCC2(CN=C(Nc3ccccc3)O2)C1` (stereo unspecified) was run?
A: 99 % of control

Q: And the T/C [12]?
A: 114 % of control

Q: Which results are given for `O=C1NC(=O)C2(CCCc3ccc(N(CCCl)CCCl)cc32)N1` (stereo unspecified)?
A: T/C (dose: 6.25 mg/kg/injection, schedule: Q04DX003 (ip), vehicle: saline with Tween-80): 150 % of control; T/C (dose: 12.5 mg/kg/injection, schedule: Q04DX003 (ip), vehicle: saline with Tween-80): 170 % of control; T/C [2]: 227 % of control; T/C (dose: 132.0 mg/kg/injection, schedule: Q04DX003 (ip), vehicle: saline with Tween-80): 195 % of control; T/C [3]: 229 % of control and 240 % of control; T/C (dose: 300.0 mg/kg/injection, schedule: Q04DX003 (ip), vehicle: saline with Tween-80): 191 % of control

Q: With `CCOC(=O)CNC(c1ccccc1)(c1ccccc1)c1ccccc1` as the compound, how does the T/C [6] read?
A: 95 % of control

Q: What about the T/C (dose: 100.0 mg/kg/injection, schedule: Q04DX003 (ip), vehicle: Klucel (hydroxypropylcellulose) (HPC)) of the same compound?
A: 109 % of control

Q: And the T/C [7]?
A: 91 % of control

Q: And the T/C [9]?
A: 113 % of control

Q: And the T/C [8]?
A: 108 % of control

Q: What about the T/C [10] of the same compound?
A: 104 % of control

Q: For `CS(=O)(=O)OCC(OS(C)(=O)=O)C(COS(C)(=O)=O)OS(C)(=O)=O` (stereo unspecified), which T/C [5] is on record?
A: 100 % of control

Q: What about the T/C [1] of the same compound?
A: 95 % of control

Q: And the T/C (dose: 100.0 mg/kg/injection, schedule: Q01DX009 (ip), vehicle: saline with Tween-80)?
A: 102 % of control

Q: And the T/C [2]?
A: 91 % of control

Q: What about the T/C (dose: 200.0 mg/kg/injection, schedule: Q01DX009 (ip), vehicle: saline with Tween-80) of the same compound?
A: 93 % of control

Q: And the T/C [3]?
A: 95 % of control

Q: What about the T/C (dose: 400.0 mg/kg/injection, schedule: Q01DX009 (ip), vehicle: saline with Tween-80) of the same compound?
A: 88 % of control

Q: And the T/C [4]?
A: 91 % of control

Q: With `OC1(O)COC(c2ccccc2)OC1` as the compound, how does the T/C [11] read?
A: 104 % of control

Q: And the T/C [6]?
A: 120 % of control

Q: And the T/C [12]?
A: 104 % of control

Q: What about the T/C [7] of the same compound?
A: 110 % of control

Q: What about the T/C (dose: 400.0 mg/kg/injection, schedule: Q01DX001 (ip), vehicle: Klucel (hydroxypropylcellulose) (HPC)) of the same compound?
A: 100 % of control

Q: And the T/C [8]?
A: 115 % of control

Q: Which T/C (dose: 7.18 mg/kg/injection, schedule: Q04DX003 (ip), vehicle: Klucel (hydroxypropylcellulose) (HPC)) does the source give for `CCOC(=O)C1CNc2ccccc2N1` (stereo unspecified) here?
A: 110 % of control

Q: And the T/C (dose: 14.37 mg/kg/injection, schedule: Q04DX003 (ip), vehicle: Klucel (hydroxypropylcellulose) (HPC))?
A: 105 % of control

Q: And the T/C (dose: 28.75 mg/kg/injection, schedule: Q01DX001 (ip), vehicle: Klucel (hydroxypropylcellulose) (HPC))?
A: 91 % of control

Q: And the T/C (dose: 28.75 mg/kg/injection, schedule: Q04DX003 (ip), vehicle: Klucel (hydroxypropylcellulose) (HPC))?
A: 105 % of control

Q: What about the T/C (dose: 57.5 mg/kg/injection, schedule: Q01DX001 (ip), vehicle: Klucel (hydroxypropylcellulose) (HPC)) of the same compound?
A: 95 % of control

Q: What about the T/C (dose: 57.5 mg/kg/injection, schedule: Q04DX003 (ip), vehicle: Klucel (hydroxypropylcellulose) (HPC)) of the same compound?
A: 109 % of control

Q: And the T/C (dose: 75.0 mg/kg/injection, schedule: Q01DX009 (ip), vehicle: Klucel (hydroxypropylcellulose) (HPC))?
A: 105 % of control

Q: What about the T/C (dose: 115.0 mg/kg/injection, schedule: Q01DX001 (ip), vehicle: Klucel (hydroxypropylcellulose) (HPC)) of the same compound?
A: 91 % of control

Q: And the T/C (dose: 115.0 mg/kg/injection, schedule: Q01DX009 (ip), vehicle: Klucel (hydroxypropylcellulose) (HPC))?
A: 110 % of control

Q: And the T/C (dose: 115.0 mg/kg/injection, schedule: Q04DX003 (ip), vehicle: Klucel (hydroxypropylcellulose) (HPC))?
A: 95 % of control

Q: What about the T/C (dose: 170.0 mg/kg/injection, schedule: Q01DX001 (ip), vehicle: Klucel (hydroxypropylcellulose) (HPC)) of the same compound?
A: 104 % of control

Q: For `Cn1c(=O)c2[nH]cnc2n(C)c1=O`, which T/C (dose: 25.0 mg/kg/injection, schedule: Q01DX010 (ip), vehicle: saline) is on record?
A: 95 % of control

Q: And the T/C (dose: 50.0 mg/kg/injection, schedule: Q01DX010 (ip), vehicle: saline)?
A: 104 % of control

Q: And the T/C (dose: 100.0 mg/kg/injection, schedule: Q01DX010 (ip), vehicle: saline)?
A: 100 % of control

Q: What about the T/C (dose: 200.0 mg/kg/injection, schedule: Q01DX010 (ip), vehicle: saline) of the same compound?
A: 104 % of control

Q: What does the source list for `FC(F)(F)/C([S-])=C(/[S-])C(F)(F)F.FC(F)(F)/C([S-])=C(/[S-])C(F)(F)F.FC(F)(F)/C([S-])=C(/[S-])C(F)(F)F.FC(F)(F)/C([S-])=C(/[S-])C(F)(F)F.[Co+3].[Co+3]`?
A: T/C (dose: 12.5 mg/kg/injection, schedule: Q04DX003 (ip), vehicle: other): 110 % of control; T/C (dose: 25.0 mg/kg/injection, schedule: Q04DX003 (ip), vehicle: other): 120 % of control

Q: `COc1ccc(C2C=C(C)Oc3c2c(=O)oc2ccccc32)cc1OC` (stereo unspecified) was tested. Which T/C (dose: 6.25 mg/kg/injection, schedule: Q04DX003 (ip), vehicle: water) did it give?
A: 98 % of control

Q: And the T/C (dose: 12.5 mg/kg/injection, schedule: Q01DX009 (ip), vehicle: water)?
A: 91 % of control

Q: And the T/C (dose: 12.5 mg/kg/injection, schedule: Q04DX003 (ip), vehicle: water)?
A: 104 % of control

Q: And the T/C (dose: 25.0 mg/kg/injection, schedule: Q04DX003 (ip), vehicle: water)?
A: 100 % of control

Q: What about the T/C (dose: 50.0 mg/kg/injection, schedule: Q04DX003 (ip), vehicle: water) of the same compound?
A: 100 % of control

Q: What about the T/C (dose: 100.0 mg/kg/injection, schedule: Q04DX003 (ip), vehicle: water) of the same compound?
A: 88 % of control and 96 % of control

Q: What about the T/C (dose: 200.0 mg/kg/injection, schedule: Q04DX003 (ip), vehicle: water) of the same compound?
A: 94 % of control

Q: What about the T/C (dose: 400.0 mg/kg/injection, schedule: Q04DX003 (ip), vehicle: water) of the same compound?
A: 90 % of control
